Like-named read-outs stand apart in the source and are kept apart here.
Key:
human β3-adrenoceptor = biological target: T1, human β3-adrenoceptor (Homo sapiens, UniProt P13945); test: Agonistic activities on human β3-adrenoceptor (cAMP accumulation in SK-N-MC cells); type: cell-based; conditions: for β3 receptor I.A.: intrinsic activity: maximum reaction relative to isoproterenol maximum (100%); for EC50: read-out: β3 receptor EC50
T1 construct: SK-N-MC cells (American Type Culture Collection, 1×10^5 cell/mL) were put in 96 well plates; host or cells: SK-N-MC cells
T1 sequence (P13945 whole entry): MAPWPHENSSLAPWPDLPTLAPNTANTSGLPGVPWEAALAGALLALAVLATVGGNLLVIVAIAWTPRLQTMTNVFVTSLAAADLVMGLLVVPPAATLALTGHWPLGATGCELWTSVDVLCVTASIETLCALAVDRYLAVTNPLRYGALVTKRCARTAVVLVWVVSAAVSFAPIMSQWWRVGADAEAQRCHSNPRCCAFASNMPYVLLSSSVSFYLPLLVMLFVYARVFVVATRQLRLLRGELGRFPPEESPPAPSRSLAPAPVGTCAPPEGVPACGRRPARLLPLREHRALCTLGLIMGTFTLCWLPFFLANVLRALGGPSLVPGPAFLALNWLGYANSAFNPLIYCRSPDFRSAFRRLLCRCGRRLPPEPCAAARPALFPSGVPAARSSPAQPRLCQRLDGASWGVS
Method: 1. Measurement of Agonistic Activities on Human β3-adrenoceptor
Test compounds were dissolved in 50% dimethyl sulfoxide to make a 10^−2 M solution. Then, a series of 1:10 dilutions containing a maximal dose of 1×10^−4 M were prepared using D-PBS (−) (Gibco-BRL: LIFE TECHNOLOGIES). The series were used for a testing sample to measure activity. SK-N-MC cells (American Type Culture Collection, 1×10^5 cell/mL) were put in 96 well plates by 100 μL and were cultured for about 24 hours. […] After that, 20 μL of 3-isobutyl-1-methylxanthine (SIGMA, 1×10^−2 mol/L D-PBS (−) solution) and 20 μL of testing sample were added in them and they were incubated under an atmosphere of 5% CO2 at 37° C. for 30 minutes. cAMP concentrations accumulated in cells were reacted in cAMP-Screen (Applied Biosystems) and were detected by Microplate LuminometerTR717 (Applied Biosystems).

human β2-adrenoceptor = biological target: T2, human β2-adrenoceptor (Homo sapiens, UniProt P07550); test: Agonistic activities on human β2-adrenoceptor (cAMP in transfected CHO cells); type: cell-based; conditions: intrinsic activity: maximum reaction relative to isoproterenol maximum (100%)
T2 construct: expressed in transfected cells; host or cells: CHO cells
T2 sequence (P07550 whole entry): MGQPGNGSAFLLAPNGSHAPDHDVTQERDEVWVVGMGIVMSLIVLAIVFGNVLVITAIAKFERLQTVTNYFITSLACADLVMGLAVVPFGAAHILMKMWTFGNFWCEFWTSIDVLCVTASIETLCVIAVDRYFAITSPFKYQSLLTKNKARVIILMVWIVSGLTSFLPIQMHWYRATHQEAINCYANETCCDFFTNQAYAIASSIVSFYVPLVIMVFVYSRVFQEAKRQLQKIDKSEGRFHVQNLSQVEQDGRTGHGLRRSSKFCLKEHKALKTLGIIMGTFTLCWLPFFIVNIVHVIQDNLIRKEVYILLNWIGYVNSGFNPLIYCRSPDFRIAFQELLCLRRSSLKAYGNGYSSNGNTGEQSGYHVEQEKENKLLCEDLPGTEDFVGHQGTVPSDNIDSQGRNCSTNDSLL
Description: (§1) 2. Measurement of Agonistic Activities on Human β1- and β2-adrenoceptors
(2) Human β2-adrenoceptor
The primer which added a restriction enzyme recognition region to 5′ end was designed on the basis of the base information that is registered with GenBank/EMBL data base as Accession No. M15169, and the clone was obtained by performance of PCR using human bladder origin cDNA as a template. The clone was inserted in top GEM-T vector and was amplified in Escherichia coli bacteria as a plasmid, and it was purified and the sequence of full length and around of insertion sequence determined by means of 310 Genetic Analyzer (ABI).
(2) Preparation of Human β2-adrenoceptor Expressed Cells
The plasmid (80 ng) for expression obtained in the previous section was transfected into […] suspended in DMEM containing 10% fetal bovine serum by means of Lipofectoamine2000. These cells were dispensed in 96 well plate by 5×10^4 cells/100 μL per well and were cultured under an atmosphere of 5% CO2 at 37° C. for 24 hours, and were used for the assay.
(§2) 3) Measurement of Agonistic Activities on Human β1- and β2-adrenoceptors
(§3) Test compounds were dissolved in 50% dimethyl sulfoxide to make a 10^−2 M solution. Then, a series of 1:10 dilutions containing a maximal dose of […] were prepared using D-PBS (−). The series were used for a testing sample to measure activity. The culture medium of CHO cells of previous section was removed and washed twice with 200 μL D-PBS (−) per well. After that, 50 μL of 3-isobutyl-1-methylxanthine (SIGMA, 1 mM) was added and leaved at rest for 5 minutes, and 50 μL of testing sample were added in them and they were incubated under an atomosphere of 5% CO2 at 37° C. for 30 minutes. cAMP concentrations accumulated in cells were reacted in cAMP-Screen and were detected by Microplate LuminometerTR717.

human β1-adrenoceptor = biological target: T3, human β1-adrenoceptor (Homo sapiens, UniProt P08588); test: Agonistic activities on human β1-adrenoceptor (cAMP in transfected CHO cells); type: cell-based; conditions: for β1 receptor I.A.: intrinsic activity: maximum reaction relative to isoproterenol maximum (100%)
T3 construct: Both ends of a domain including full length of human β1-adrenoceptor were amplified; expressed in transfected cells; host or cells: CHO cells
T3 sequence (P08588 whole entry): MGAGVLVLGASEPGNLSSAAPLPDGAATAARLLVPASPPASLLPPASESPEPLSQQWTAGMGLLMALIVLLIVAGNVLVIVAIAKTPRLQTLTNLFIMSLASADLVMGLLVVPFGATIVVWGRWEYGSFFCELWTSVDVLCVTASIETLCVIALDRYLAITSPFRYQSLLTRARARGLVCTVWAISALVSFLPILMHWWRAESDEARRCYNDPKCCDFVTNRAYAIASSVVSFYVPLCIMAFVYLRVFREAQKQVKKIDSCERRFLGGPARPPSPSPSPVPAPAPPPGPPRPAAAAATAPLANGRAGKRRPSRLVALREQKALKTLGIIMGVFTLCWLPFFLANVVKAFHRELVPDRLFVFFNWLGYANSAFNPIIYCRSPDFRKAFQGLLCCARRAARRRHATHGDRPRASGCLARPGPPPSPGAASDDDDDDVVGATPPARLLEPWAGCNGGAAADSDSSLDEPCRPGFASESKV
Description: as §1
(1) Human β1-adrenoceptor
Both ends of a domain including full length of human β1-adrenoceptor were amplified on the basis of DNA base information that is registered with GenBank/EMBL data base as Accession No. J03019. DNA fragment which was amplified was inserted into a vector for cloning and amplified in Escherichia coli bacteria. The plasmid which was cloned was inserted into a vector pCI-neo (Promega) for protein expression and plasmid DNA was extracted and purified, then it was used for a preparation of the following expression cells.
(1) Preparation of Human β1-adrenoceptor Expressed Cells
The plasmid (320 ng) for expression which was obtained in the previous section was transfected into 5×10^4 CHO cells suspended in DMEM (Gibco-BRL: LIFE TECHNOLOGIES) containing 10% fetal bovine serum (Sanko Junyaku) by means of Lipofectoamine2000 (Invitrogen). These cells were dispensed in 96 well plate by 5×10^4 cells/100 μL per well and were cultured under an atmosphere of 5% CO2 at 37° C. for 24 hours, and were used for the assay.
as §2, §3

β1-adrenoceptor = biological target: T4, β1-adrenoceptor (Rattus norvegicus, UniProt P18090); test: β1-adrenoceptor stimulation in isolated tissue: heart rate increment of rat atrium (Magnus method); design: species or system SD rat; conditions: read-out: β1 receptor EC50
T4 construct: The atrium of male SD rat (body weight 250-400 g) was isolated; from tissue; host or cells: SD rat atrium
T4 sequence (P18090 whole entry): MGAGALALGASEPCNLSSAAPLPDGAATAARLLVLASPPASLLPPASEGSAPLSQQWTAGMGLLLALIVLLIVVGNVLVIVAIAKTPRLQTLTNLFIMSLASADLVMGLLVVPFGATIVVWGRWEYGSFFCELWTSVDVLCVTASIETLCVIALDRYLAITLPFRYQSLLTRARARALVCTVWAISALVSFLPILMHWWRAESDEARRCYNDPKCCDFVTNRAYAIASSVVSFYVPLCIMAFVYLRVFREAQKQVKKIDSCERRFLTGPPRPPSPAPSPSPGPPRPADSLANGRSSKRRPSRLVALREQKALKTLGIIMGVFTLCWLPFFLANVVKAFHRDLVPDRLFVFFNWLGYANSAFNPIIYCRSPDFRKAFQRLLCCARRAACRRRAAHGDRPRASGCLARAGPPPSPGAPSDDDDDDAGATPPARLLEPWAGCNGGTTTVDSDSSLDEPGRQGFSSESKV
Method: 2) Measurement of β1-adrenoceptor Stimulation
The atrium of male SD rat (body weight 250-400 g) was isolated and the experiment was conducted according to a Magnus method. The preparation was suspended in a Krebs-Henseleit solution maintained at 37° C. and gassed with a mixed gas of 95% O2 and 5% CO2 and stretched at a tension of 0.5 g. The myocardial contractility was outputted through an isometric force transducer and recorded on an oscillograph through a tachometer. The test compound was added cumulatively into a Magunus bath.

ddY mice adipocytes = test: Lipolysis in ddY mice adipocytes (free fatty acid release); type: cell-based; conditions: Mus musculus, Adipocyte, 2 h; read-out: Lipolysis acticity EC50 value
Method: Epididymal fat tissue of ddY mice (body weight 35 g) was removed and isolated to cells by collagenase (typeI, 1 mg/ml) in a culture medium (Krebs-Henseleit solution inclusive of 3% BSA, 1.2 mM CaCl2 and 25 mM HEPES but exclusive of NaHCO3; pH7.4) maintained at 37° C. After rinsing the cells in the culture medium, 50,000 cells/well were seeded in a 96-well culture plate and were incubated at 37° C. in the presence of various concentration of test compounds. Two hours later, the concentration of free fatty acid in the culture medium was measured and it was made as an index for lipolysis. The concentration of free fatty acid was measured by means of NEFA C-test wako (WAKO).
(R)-3′-[[2-[[2-(3-chlorophenyl)-2-hydroxyethyl]amino-ethoxy]-[1,1′-biphenyl]-3-carboxylic acid which was described in example 17 on WO99/65877 was also examined as a comparison example.

β2-adrenoceptor = biological target: T5, β2-adrenoceptor (Rattus norvegicus, UniProt P10608); test: β2-adrenoceptor stimulation in isolated tissue: inhibition of spontaneous contraction of pregnant rat uterus (Magnus method); design: species or system SD rat; conditions: read-out: β2 receptor EC50
T5 construct: The uterus of pregnant SD rat (Day 21 of gestation) was isolated and longitudinal muscle strip; from tissue; host or cells: pregnant SD rat uterus, longitudinal muscle strip
T5 sequence (P10608 whole entry): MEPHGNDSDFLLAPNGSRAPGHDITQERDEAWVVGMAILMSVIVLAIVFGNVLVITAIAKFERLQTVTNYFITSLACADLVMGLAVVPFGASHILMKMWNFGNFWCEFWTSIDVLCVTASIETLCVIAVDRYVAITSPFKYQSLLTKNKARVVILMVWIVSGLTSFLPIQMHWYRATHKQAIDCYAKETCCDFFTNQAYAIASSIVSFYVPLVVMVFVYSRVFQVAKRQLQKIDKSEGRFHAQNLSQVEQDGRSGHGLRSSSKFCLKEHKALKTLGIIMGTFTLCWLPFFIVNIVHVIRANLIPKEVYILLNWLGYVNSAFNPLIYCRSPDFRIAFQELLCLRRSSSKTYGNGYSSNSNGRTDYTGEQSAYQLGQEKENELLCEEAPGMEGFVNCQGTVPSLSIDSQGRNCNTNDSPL
Method: 3) Measurement of β2-adrenoceptor Stimulation
The uterus of pregnant SD rat (Day 21 of gestation) was isolated and longitudinal muscle strip, which was avoided placenta attached part, about 15 mm in length and 5 mm in width was taken and the experiment was conducted according to a Magnus method. The preparation was suspended in a Locke-Ringer solution maintained at 37° C. and gassed with a mixed gas of 95% O2 and 5% CO2 and stretched at a tension of 0.5 g. Spontaneous contraction of uterus was outputted through an isometric force transducer and recorded on an oscillograph through a tachometer. The test compound was added cumulatively into a Magnus bath by every 5 minutes. Potencies were evaluated that the sum of uterine contraction for 5 minutes before the addition of test compounds was taken as a 100%, and compared with the sum of uterine contraction for 5 minutes after the addition of each concentration of test compounds. […] (R)-3′-[[2-[[2-(3-chlorophenyl)-2-hydroxyethyl]-aminoethoxy]-[1,1′-biphenyl]-3-carboxylic acid which was described in example 17 on WO99/65877 was also examined as a comparison example.

[1] = Transport study using human intestinal epithelium tissue (Caco-2); type: in vitro ADME; conditions: inside (pH 6.0) to outside (pH 7.4), 37° C., read-out: permeability coefficient Caco-2 Papp
Method: 1) Preparation of Culture Medium.
Dulbecco's modified Eagle's medium (Invitrogen Life Technologies) containing 1% fetal bovine serum (Sanko Jyunyaku), 1% MEM-nonessential amino acids, […] L-glutamine (Invitrogen Life Technologies), 1% penicillin—streptomycin 10000 units/mL-10000 μg/mL (Invitrogen Life Technologies) was prepared and used as a culture medium.
Caco-2 cells (American Type Culture Collection) were subcultured in a culture flask containing the culture medium.
After removing the culture medium before the cell reaches confluent, Caco-2 cells were washed with Hank's balanced salt solution Ca, Mg Free (Invitrogen Life Technologies).
The culture medium in the inside and outside compartments of the Traswell chamber was removed and replaced by a buffer solution containing 10 mM MES (pH 6.0) or 10 mM HEPES (pH7.4). The medium volume in the inside and outside compartments of the chamber was made at 0.1 mL (pH 6.0) and 0.5 mL (pH 7.4), respectively. The medium of the inside compartment was replaced by a buffer solution (pH 6.0) containing test compounds. For evaluating the transport of the test compounds from the inside compartment to the outside compartment, 100 μL of the outside buffer was sampled after incubating at 37° C. for 1 hr.
The apparent permeability coefficient was calculated as the following equation. The amounts of the test compounds in the outside buffer sampled were divided by incubation time. In addition, the amounts of penetration per incubation time (second) were divided by the concentration of the added test compound and the membrane surface.
[formula] • Papp is apparent permeability coefficient. (×10^−6 cm/sec) • dQ/dt is amount of penetration per incubation time. • Co is the initial concentration. (100 μM) • A is the membrane surface area. (0.33 cm^2) • The concentrations of test compounds were determined using LC/MS/MS.

SMILES | β3 receptor I.A. (human β3-adrenoceptor) [%] | EC50 (human β3-adrenoceptor) [nM] | β2 receptor I.A. (human β2-adrenoceptor) [%] | EC50 (human β1-adrenoceptor; CHO cells expressing human β1-adrenoceptor, cAMP, 50% of isoproterenol maximum, read-out: β1 receptor EC50) [nM] | β1 receptor I.A. (human β1-adrenoceptor) [%] | EC50 (β1-adrenoceptor) [nM] | EC50 (ddY mice adipocytes) [nM] | EC50 (β2-adrenoceptor) [nM] | EC50 (human β1-adrenoceptor; read-out: β1 receptor EC50) [nM] | Papp at 1 h, 100 μM [1] [×10⁻⁶ cm/s] | Emax (human β1-adrenoceptor; CHO, read-out: β1 receptor EC50) [%]
O=C(O)c1cccc(-c2cccc(OCCNC[C@H](O)c3cccc(Cl)c3)c2)c1 [Comparison, reference compound] | 41 | > 10000 | 15 | 740 | 60 | 1880 | > 1000 | > 10000 | – | – | –
CCc1cc(C(=O)O)ccc1-c1ccc(OCCN[C@@H](C)[C@H](O)c2ccc(O)cc2)cc1 [Compound 153, 2-Ethyl-4′-{(1S,2R)-2-[2-hydroxy-2-(4-hydroxyphenyl)-1-methylethylamino]ethoxy}biphenyl-4-carboxylic acid] | 97 | 480 | 28 | – | 57 | > 10000 | – | 2680 | 4320 | – | –
CC(C)c1cc(C(=O)O)ccc1-c1ccc(OCCN[C@@H](C)[C@H](O)c2ccc(O)cc2)cc1 [Compound 156] | 239 | 25 | 27 | – | 87 | > 10000 | 19.5 | 5870 | 18900 | 3.4 | –
CCCc1cc(C(=O)O)ccc1-c1cc(C)c(OCCN[C@@H](C)[C@H](O)c2ccc(O)cc2)c(C)c1 [Compound 26] | 125 | 57 | 49 | – | 74 | – | 11.2 | – | 2280 | – | –
CCCc1cc(C(=O)O)ccc1-c1ccc(OCCN[C@@H](C)[C@H](O)c2ccc(O)cc2)cc1 [Compound 160] | 91 | 200 | 32 | – | 62 | – | – | – | 790 | 4 | –
Cc1cc(-c2ccc(C(=O)O)c(C(C)C)c2)cc(C)c1OCCN[C@@H](C)[C@H](O)c1ccc(O)cc1 [Compound 4, 4′-{2-[(1S,2R)-2-Hydroxy-2-(4-hydroxyphenyl)-1-methylethyl-amino]ethoxy}-3-isopropyl-3′,5′-dimethylbiphenyl-4-carboxylic acid] | 94 | 240 | 27 | – | 45 | – | – | – | – | 15.7 | < 50
CC(C)NCC(O)c1ccc(O)c(O)c1 (centres unmarked) [Isoproterenol, reference compound] | 100 | – | – | – | – | – | – | – | – | – | –
Cc1cc(C(=O)O)ccc1-c1cc(C)c(OCCN[C@@H](C)[C@H](O)c2ccc(O)cc2)c(C)c1 [Compound 3, 4′-{2-[(1S,2R)-2-Hydroxy-2-(4-hydroxyphenyl)-1-methylethyl-amino]ethoxy}-2,3′,5′-trimethylbiphenyl-4-carboxylic acid] | – | – | – | – | – | – | – | – | – | 19.9 | –

Source: patent US7674938B2, “Amino alcohol derivatives, pharmaceutical compositions containing the same, and use thereof” (Kissei Pharmaceutical Co., Ltd., priority 2003, dated 2010)
